Here are results for two molecules from US8420817B2, “Tricyclic N-heteroaryl-carboxamide derivatives, preparation and therapeutic use thereof” (Sanofi, priority 2007, dated 2013).

Series [1] has as its target T1, TRPV1 receptors (Mus musculus, UniProt Q704Y3).
T1 construct: from tissue; host or cells: living mice, hind paw (in vivo behavioural test)
Description: Pain induced by intraplantar administration of capsaicin in mice. It counts as in vivo. Conditions: 30 mg/kg orally 120 minutes before intraplantar capsaicin, n=10. How it is done: Pain Induced by Intraplantar Administration of Capsaicin in Mice
The intraplantar injection of capsaicin in mice rapidly produces a short-duration nociceptif behavior which is manifested in instances of licking, chewing and flexing of the treated paw. These nociceptive responses are probably linked to activation of the local TRPV1 receptors by the capsaicin.
(E)-capsaicin is initially diluted at 3 mg/ml in DMSO, then diluted again, for its final use, at 1.5 μg/20 μl in physiological saline. Administration of solvent has no effect at all on the behavior of the mouse. The capsaicin is injected into one of the hind paws of the animal, at the level of the upper face.
The compounds to be tested are administered orally 120 minutes prior to injection of capsaicin. […] The nociceptif behavior of the animals is then immediately evaluated by the person carrying out the experiment, and the duration of the behavioral manifestations induced by the capsaicin is recorded with a stop watch for a time of 2 minutes (licking and chewing, total or partial flexing of the injected paw).
For each compound an inhibition is determined which corresponds to the mean of the nociceptive responses induced by the capsaicin in response to a dose of test product (expressed in mg/kg) administered orally, on a sample of a specific number of mice (n).

In series [2] the target is T2, TRPV1 receptor (Rattus norvegicus, UniProt O35433).
T2 construct: The neurons of the DRG naturally express the TRPV1 receptor; endogenous in cells; host or cells: primary culture of newborn rat dorsal root ganglion neurons
Description: Inhibition of the current induced by capsaicin on rat DRGs (whole-cell patch-clamp). The conditions noted are these: DRG neuron; compound at 10 nM; inhibition of the control capsaicin response; rat DRG neurons. It counts as cell-based. The method, then:
Test for Inhibition of the Current Induced by Capsaicin on Rat DRGs
• Primary culture of rat dorsal root ganglion (DRG) cells:
The neurons of the DRG naturally express the TRPV1 receptor.
Newborn rat DRG primary cultures are prepared from 1-day-old rat pups. Briefly, after dissection, the ganglia are trypsinized and the cells are mechanically dissociated by controlled trituration. The cells are resuspended in an Eagle's basal culture medium containing 10% of fetal calf serum, 25 mM KCl, 2 mM glutamine, 100 μg/ml gentamicin and 50 ng/ml of NGF, and then deposited onto laminin-coated glass cover slips (0.25×10^6 cells per cover slip) which are then placed in 12-well Corning dishes. The cells are incubated at 37° C. in a humidified atmosphere containing 5% CO2 and 95% air. […]
The measuring chambers (volume 800 μl) containing the cell preparation are placed on the platform of an inverted microscope (Olympus IMT2) equipped with Hoffman optics (Modulation Contrast, New York), and observed at the magnification of 400×. […] The overall currents (membrane potential fixed at −60 mV) are recorded with an Axopatch 1D amplifier (Axon Instruments, Foster City, Calif.), connected to a PC controlled by Pclamp8 software (Axon Instruments). The current traces are recorded on paper and simultaneously digitized (sampling frequency 15 to […]) and acquired on the hard drive of the PC. […]
(In general: The patch-clamp technique gives a direct electrical read-out from membranes.)

T2 sequence (O35433 whole entry): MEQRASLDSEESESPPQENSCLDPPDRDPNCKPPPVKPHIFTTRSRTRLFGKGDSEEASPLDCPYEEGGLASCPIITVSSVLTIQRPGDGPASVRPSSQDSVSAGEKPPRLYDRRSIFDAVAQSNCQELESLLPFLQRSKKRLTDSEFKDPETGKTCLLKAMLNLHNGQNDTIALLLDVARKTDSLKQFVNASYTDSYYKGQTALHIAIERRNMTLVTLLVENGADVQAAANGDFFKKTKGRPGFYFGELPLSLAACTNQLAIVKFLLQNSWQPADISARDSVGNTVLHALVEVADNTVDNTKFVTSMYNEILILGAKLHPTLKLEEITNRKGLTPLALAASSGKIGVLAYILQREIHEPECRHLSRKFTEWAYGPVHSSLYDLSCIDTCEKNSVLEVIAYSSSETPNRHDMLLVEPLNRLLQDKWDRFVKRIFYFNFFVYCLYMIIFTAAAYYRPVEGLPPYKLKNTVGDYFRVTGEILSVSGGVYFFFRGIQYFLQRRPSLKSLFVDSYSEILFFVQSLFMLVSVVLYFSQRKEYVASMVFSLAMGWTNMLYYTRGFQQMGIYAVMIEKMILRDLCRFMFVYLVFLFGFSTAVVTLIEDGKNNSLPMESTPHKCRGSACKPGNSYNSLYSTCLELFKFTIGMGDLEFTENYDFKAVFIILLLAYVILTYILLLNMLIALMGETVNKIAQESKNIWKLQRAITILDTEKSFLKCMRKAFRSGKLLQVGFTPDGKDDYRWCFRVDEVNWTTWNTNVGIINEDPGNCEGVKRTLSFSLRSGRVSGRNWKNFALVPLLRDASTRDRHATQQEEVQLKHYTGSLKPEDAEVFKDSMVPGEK
T1 sequence (Q704Y3 whole entry): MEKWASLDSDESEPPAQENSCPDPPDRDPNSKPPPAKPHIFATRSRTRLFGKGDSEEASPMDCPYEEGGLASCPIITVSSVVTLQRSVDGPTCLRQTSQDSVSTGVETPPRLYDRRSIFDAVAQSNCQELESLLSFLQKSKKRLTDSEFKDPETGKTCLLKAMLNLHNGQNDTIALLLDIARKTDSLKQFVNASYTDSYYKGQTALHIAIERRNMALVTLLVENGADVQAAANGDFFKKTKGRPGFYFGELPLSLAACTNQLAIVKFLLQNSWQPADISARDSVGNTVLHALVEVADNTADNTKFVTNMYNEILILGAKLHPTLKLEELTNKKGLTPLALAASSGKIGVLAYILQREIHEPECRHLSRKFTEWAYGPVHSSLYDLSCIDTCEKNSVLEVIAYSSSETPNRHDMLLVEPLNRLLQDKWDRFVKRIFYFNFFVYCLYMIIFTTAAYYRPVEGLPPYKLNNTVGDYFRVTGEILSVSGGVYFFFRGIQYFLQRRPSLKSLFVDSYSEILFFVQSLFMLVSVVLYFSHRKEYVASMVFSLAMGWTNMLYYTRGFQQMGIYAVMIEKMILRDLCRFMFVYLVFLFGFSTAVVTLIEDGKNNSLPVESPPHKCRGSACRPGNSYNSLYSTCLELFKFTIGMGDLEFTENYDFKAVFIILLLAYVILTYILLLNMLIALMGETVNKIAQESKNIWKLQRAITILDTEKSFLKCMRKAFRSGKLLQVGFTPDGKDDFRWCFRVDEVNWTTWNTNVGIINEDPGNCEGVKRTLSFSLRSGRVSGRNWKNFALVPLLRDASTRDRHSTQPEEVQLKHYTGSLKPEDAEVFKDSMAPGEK

For orientation: melting point means the temperature, or range, at which the solid turns liquid. `O=C(Nc1cnc2c(c1)nc1n2CCC1O)c1cc2cc(C(F)(F)F)ccc2n1Cc1cccc(F)c1` (racemic) [Compound 29, N-(6-Hydroxy-7,8-dihydro-6H-pyrrolo[2′,1′:2,3]imidazo[4,5-b]pyridin-3-yl)-5-trifluoromethyl-1-(3-fluorobenzyl)-1H-indole-2-carboxamide] registered a melting point of 254 to 255 °C. Moreover, the “% inhibition of nociceptive responses induced by capsaicin” value in series [1] is reported as 63% (+/−11%).
One may read the inhibition as how much of the control response was suppressed. A lower inhibition goes with little suppression. With `O=C(Nc1cnc2c(c1)nc1n2CCC1)c1cc2cc(F)ccc2n1Cc1cccc(F)c1` [Compound 1, N-(7,8-Dihydro-6H-pyrrolo[2′,1′:2,3]imidazo[4,5-b]pyridin-3-yl)-5-fluoro-1-(3-fluorobenzyl)-1H-indole-2-carboxamide], the melting point is 227 to 229 °C. The same molecule gave an inhibition at 0.01 µM in series [2] of 69%.
